Data published in US8722849B2, “Polypeptides” (Novo Nordisk A/S, priority 2011, dated 2014).
In brackets after ≈: the same amount, converted by molar mass. Read-outs that look alike come from different tables or passages of the source. Starred links: 1 amine or outer side, 2 acyl side, 3 side chain; linkers in the order of their positions; H or OH if unused. Positions of bridges follow the written chain, without caps; N, C: chain ends. Residues, ends and D or L forms follow the SMILES beside them. *: point of attachment. C20 diacid = O=C(O)CCCCCCCCCCCCCCCCCCC(=O)*; C18 diacid = O=C(O)CCCCCCCCCCCCCCCCC(=O)*; γGlu = O=C(O)[C@H](CCC(=O)[*:2])N[*:1]

Assays:
[1] = target: T1, human amylin receptor (amylin 3(a) receptor: human calcitonin receptor + RAMP-3) (Homo sapiens, UniProt O60896+P30988); assay: Assay (II)a functional CRE-luciferase assay, human amylin receptor; type: cell-based; conditions: Table 2; BHK amylin 3(a)-receptor/CRE-luc cells
T1 construct: expressed in transfected cells; host or cells: BHK570
T1 sequence (P30988 25-474): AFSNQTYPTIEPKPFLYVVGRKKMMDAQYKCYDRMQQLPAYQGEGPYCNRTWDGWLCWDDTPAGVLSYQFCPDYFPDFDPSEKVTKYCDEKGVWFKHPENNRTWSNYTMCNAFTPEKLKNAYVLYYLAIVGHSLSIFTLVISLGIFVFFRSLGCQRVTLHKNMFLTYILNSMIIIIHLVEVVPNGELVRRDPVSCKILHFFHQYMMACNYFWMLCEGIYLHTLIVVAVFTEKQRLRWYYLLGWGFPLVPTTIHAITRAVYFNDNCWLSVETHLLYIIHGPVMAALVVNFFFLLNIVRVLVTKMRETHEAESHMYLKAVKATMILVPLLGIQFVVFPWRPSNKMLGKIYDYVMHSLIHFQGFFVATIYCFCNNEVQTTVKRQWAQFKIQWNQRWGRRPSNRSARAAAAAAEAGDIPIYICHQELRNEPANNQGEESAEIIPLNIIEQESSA
T1 sequence (O60896 24-148 partner): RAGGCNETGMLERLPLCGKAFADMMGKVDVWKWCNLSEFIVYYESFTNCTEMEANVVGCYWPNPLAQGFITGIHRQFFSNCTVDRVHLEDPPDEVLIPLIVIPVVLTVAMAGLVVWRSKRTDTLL

[2] = target: T2, human calcitonin receptor (Homo sapiens, UniProt P30988); assay: Assay (II)a functional CRE-luciferase assay, human calcitonin receptor; type: cell-based; conditions: Table 7; human calcitonin (CTa) receptor
T2 construct: expressed in transfected cells; host or cells: BHK570
T2 sequence (P30988 25-474): T1 sequence (P30988 25-474)

[3] = Assay (IV) determination of solubility; type: physicochemical
Outline: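 Eight 100 mM buffers (glycylglycine pH 3.0–5.0, bistrispropane pH 6.0–8.0) each received an equal volume of polypeptide dissolved in water at ~500 nmol/ml. Soluble polypeptide was measured by HPLC following 18 hours at room temperature and centrifugation.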

[4] = Assay (III) ThT fibrillation assay for physical stability; type: physicochemical
Outline: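 Freshly prepared formulations, pH-adjusted, with 1 μM ThT; four or eight replicates incubated at 37 °C under 960 rpm orbital shaking. Fluorescence (ex 444/em 485 nm) read every 20 min; […]. Peptide concentration measured by RP-HPLC before and after the run.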

[5] = bistrispropane buffer, pH 6, pH 6.0, read-out: Solubility pH 6.0
[6] = bistrispropane buffer, pH 6.5, pH 6.5, read-out: Solubility pH 6.5
[7] = bistrispropane buffer, pH 7, pH 7.0, 18 hours at room temperature, Table 3, read-out: Solubility pH 7.0
[8] = bistrispropane buffer, pH 7, pH 7.0, read-out: Solubility pH 7.0
[9] = bistrispropane buffer, pH 7.5, pH 7.5, read-out: Solubility pH 7.5
[10] = bistrispropane buffer, pH 8, pH 8.0, read-out: Solubility pH 8.0
[11] = glycylglycine buffer, pH 3, pH 3.0, read-out: Solubility pH 3.0
[12] = glycylglycine buffer, pH 4, pH 4.0, 18 hours at room temperature, Table 2, read-out: Solubility pH 4.0
[13] = glycylglycine buffer, pH 4, pH 4.0, read-out: Solubility pH 4.0
[14] = glycylglycine buffer, pH 5, pH 5.0, read-out: Solubility pH 5.0

| EC50 [1] | EC50 [2] | solubility at 18 h [3, 5] | solubility at 18 h [3, 6] | solubility at 18 h [3, 7] | solubility at 18 h [3, 8] | solubility at 18 h [3, 9] | solubility at 18 h [3, 10] | solubility at 18 h [3, 11] | solubility at 18 h [3, 12] | solubility at 18 h [3, 13] | solubility at 18 h [3, 14] | ThT pH 4.0 lag time (h) ([4]; ThT fibrillation assay) | solubility at 18 h ([3]; bistrispropane buffer, pH 7, pH 7.0, Table 8, read-out: Solubility pH 7.0) | ThT pH 4.0 lag time ([4]; Table 8) | ThT pH 4.0 lag time ([4]; ThT fibrillation assay) | Compound |
| --- | --- | --- | --- | --- | --- | --- | --- | --- | --- | --- | --- | --- | --- | --- | --- | --- |
| 0.151 nM | 0.527 nM | > 200 µM | > 200 µM | > 200 µM | > 200 µM | > 200 µM | > 200 µM | > 200 µM | > 200 µM | > 200 µM | 27 µM (≈ 120 µg/mL) | 0 h |  |  |  | CC[C@H](C)[C@H](NC(=O)[C@@H]1CCCN1C(=O)CNC(=O)[C@H](Cc1ccccc1)NC(=O)[C@H](CC(N)=O)NC(=O)[C@H](CC(N)=O)NC(=O)[C@H](CO)NC(=O)[C@H](CO)NC(=O)[C@H](Cc1c[nH]cn1)NC(=O)[C@H](Cc1c[nH]cn1)NC(=O)[C@H](CC(C)C)NC(=O)[C@H](Cc1ccccc1)NC(=O)[C@H](CCC(=O)O)NC(=O)[C@H](C)NC(=O)[C@H](CC(C)C)NC(=O)[C@H](CCCNC(=N)N)NC(=O)[C@H](CCC(N)=O)NC(=O)[C@@H](NC(=O)[C@H](C)NC(=O)[C@@H]1CSSC[C@H](NC(=O)CC[C@H](NC(=O)CC[C@H](NC(=O)CCCCCCCCCCCCCCCCC(=O)O)C(=O)O)C(=O)O)C(=O)N[C@@H](CC(N)=O)C(=O)N[C@@H]([C@@H](C)O)C(=O)N[C@@H](C)C(=O)N[C@@H]([C@@H](C)O)C(=O)N1)[C@@H](C)O)C(=O)N[C@@H](CC(C)C)C(=O)N1CCC[C@H]1C(=O)N1CCC[C@H]1C(=O)N[C@H](C(=O)N[C@@H](CC(N)=O)C(=O)N[C@H](C(=O)NCC(=O)N[C@@H](CO)C(=O)N[C@@H](CC(N)=O)C(=O)N[C@H](C(=O)N[C@@H](Cc1ccc(O)cc1)C(N)=O)[C@@H](C)O)C(C)C)[C@@H](C)O [Example 49, N-alpha-{(S)-4-Carboxy-4-[(S)-4-Carboxy-4-(17-carboxyheptadecanoylamino)butyrylamino]butyryl}-[des1,Glu14,His17]-pramlintide] ({C18 diacid-γGlu-γGlu}-CNTATCATQRLAEFLHHSSNNFGPILPPTNVGSNTY-NH2; disulfide 1-6 (inferred)) |
| 0.061 nM | 0.6 nM | > 200 µM | > 200 µM | > 200 µM | > 200 µM | > 200 µM | > 200 µM | > 200 µM | > 200 µM | > 200 µM | > 200 µM | 28.7 h | > 200 µM | 28.7 h | 28.7 h | CC[C@H](C)[C@H](NC(=O)[C@@H]1CCCN1C(=O)CNC(=O)[C@H](Cc1ccccc1)NC(=O)[C@H](CC(N)=O)NC(=O)[C@H](CC(N)=O)NC(=O)[C@H](CO)NC(=O)[C@H](CO)NC(=O)[C@H](Cc1c[nH]cn1)NC(=O)[C@H](CCCNC(=N)N)NC(=O)[C@H](CC(C)C)NC(=O)[C@H](Cc1ccccc1)NC(=O)[C@H](CCC(=O)O)NC(=O)[C@H](C)NC(=O)[C@H](CC(C)C)NC(=O)[C@H](CCCNC(=N)N)NC(=O)[C@H](CCC(N)=O)NC(=O)[C@@H](NC(=O)[C@H](C)NC(=O)[C@@H]1CSSC[C@H](NC(=O)[C@H](CCCCN)NC(=O)CC[C@H](NC(=O)CCCCCCCCCCCCCCCCC(=O)O)C(=O)O)C(=O)N[C@@H](CC(N)=O)C(=O)N[C@@H]([C@@H](C)O)C(=O)N[C@@H](C)C(=O)N[C@@H]([C@@H](C)O)C(=O)N1)[C@@H](C)O)C(=O)N[C@@H](CC(C)C)C(=O)N1CCC[C@H]1C(=O)N1CCC[C@H]1C(=O)N[C@H](C(=O)N[C@@H](CC(N)=O)C(=O)N[C@H](C(=O)NCC(=O)N[C@@H](CO)C(=O)N[C@@H](CC(N)=O)C(=O)N[C@H](C(=O)N[C@@H](Cc1ccc(O)cc1)C(N)=O)[C@@H](C)O)C(C)C)[C@@H](C)O [Example 51, N-alpha-[(S)-4-Carboxy-4-(17-carboxyheptadecanoylamino)butyryl]-[Glu14,Arg17]-pramlintide] ({C18 diacid-γGlu}-KCNTATCATQRLAEFLRHSSNNFGPILPPTNVGSNTY-NH2; disulfide 2-7 (inferred); C-terminus assumed) |
| 0.13 nM | 0.199 nM | 100 µM (≈ 446 µg/mL) | 150 µM (≈ 669 µg/mL) | > 200 µM | > 200 µM | > 200 µM | > 200 µM | > 200 µM | > 200 µM | > 200 µM | > 200 µM | 23 h |  |  |  | CC[C@H](C)[C@H](NC(=O)[C@@H]1CCCN1C(=O)CNC(=O)[C@H](Cc1ccccc1)NC(=O)[C@H](CC(N)=O)NC(=O)[C@H](CC(N)=O)NC(=O)[C@H](CO)NC(=O)[C@H](CO)NC(=O)[C@H](Cc1c[nH]cn1)NC(=O)[C@H](Cc1c[nH]cn1)NC(=O)[C@H](CC(C)C)NC(=O)[C@H](Cc1ccccc1)NC(=O)[C@H](CCC(=O)O)NC(=O)[C@H](C)NC(=O)[C@H](CC(C)C)NC(=O)[C@H](CCCNC(=N)N)NC(=O)[C@H](CCC(=O)O)NC(=O)[C@@H](NC(=O)[C@H](C)NC(=O)[C@@H]1CSSC[C@H](NC(=O)[C@H](CCCCN)NC(=O)CC[C@H](NC(=O)CCCCCCCCCCCCCCCCCCC(=O)O)C(=O)O)C(=O)N[C@@H](CC(N)=O)C(=O)N[C@@H]([C@@H](C)O)C(=O)N[C@@H](C)C(=O)N[C@@H]([C@@H](C)O)C(=O)N1)[C@@H](C)O)C(=O)N[C@@H](CC(C)C)C(=O)N1CCC[C@H]1C(=O)N1CCC[C@H]1C(=O)N[C@H](C(=O)N[C@@H](CC(N)=O)C(=O)N[C@H](C(=O)NCC(=O)N[C@@H](CO)C(=O)N[C@@H](CC(N)=O)C(=O)N[C@H](C(=O)N[C@@H](Cc1ccc(O)cc1)C(N)=O)[C@@H](C)O)C(C)C)[C@@H](C)O [Example 54, N-alpha-[(S)-4-Carboxy-4-(19-carboxynonadecanoylamino)butyryl]-[Glu10,Glu14,His17]-pramlintide] ({C20 diacid-γGlu}-KCNTATCATERLAEFLHHSSNNFGPILPPTNVGSNTY-NH2; disulfide 2-7 (inferred)) |
